# Experimental data: patent US20230348442A1, “GALECTIN-3 INHIBITING 2-HYDROXYCYCLOALKANE-1-CARBAMOYL DERIVATIVES” (Idorsia Pharmaceuticals Ltd, priority 2020, published 2023)
# Biological target: human Gal-3 (hGal-3) (Homo sapiens (Human), UniProt P17931)
# Experiment: competitive binding assay: binding of biotinylated hGal-3 to microplate-adsorbed asialofetuin (ASF), spectrophotometric
# Settings: Activity on hGal-3; mean values of several measurements
# In short: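 Spectrophotometric readout (streptavidin-peroxidase, ABTS) of biotinylated galectin retained on ASF-coated wells. Biotinylated hGal-1 or hGal-3, 300-1000 ng/mL, co-incubated with test compound 3 h at 4° C, then washed. Mean IC50 from repeat runs.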
# human Gal-3 (hGal-3), sequence (P17931 whole entry): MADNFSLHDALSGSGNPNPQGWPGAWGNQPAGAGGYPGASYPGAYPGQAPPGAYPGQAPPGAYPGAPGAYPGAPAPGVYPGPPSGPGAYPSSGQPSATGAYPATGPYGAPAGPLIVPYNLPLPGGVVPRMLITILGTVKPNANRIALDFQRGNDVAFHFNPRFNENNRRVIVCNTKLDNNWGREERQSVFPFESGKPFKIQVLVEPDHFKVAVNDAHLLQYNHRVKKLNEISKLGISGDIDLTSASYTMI
row,IC50 [nM],Structure (SMILES)
1,232,"CO[C@@H]1[C@@H](n2cc(-c3cc(F)c(F)c(Cl)c3)nn2)[C@@H](O)[C@@H](CO)O[C@H]1C(=O)N(c1cc(Br)cc(C#N)c1)[C@@H]1CC[C@H]1O [Example 2.7.5R, (2R,3R,4S,5R,6R)-N-(3-bromo-5-cyanophenyl)-4-(4-(3-chloro-4,5-difluorophenyl)-1H-1,2,3-triazol-1-yl)-5-hydroxy-N-((1R,2R)-2-hydroxycyclobutyl)-6-(hydroxymethyl)-3-methoxytetrahydro-2H-pyran-2-carboxamide]"
2,131,"CO[C@@H]1[C@@H](n2cc(-c3ccc(Cl)c(Cl)c3)nn2)[C@@H](O)[C@@H](CO)O[C@H]1C(=O)N(c1cc(Cl)cc(C#N)c1)[C@H]1CC[C@@H]1O [Example 2.8.4, (2R,3R,4S,5R,6R)-N-(3-chloro-5-cyanophenyl)-4-(4-(3,4-dichlorophenyl)-1H-1,2,3-triazol-1-yl)-5-hydroxy-N-((1S,2S)-2-hydroxycyclobutyl)-6-(hydroxymethyl)-3-methoxytetrahydro-2H-pyran-2-carboxamide]"
3,401,"CO[C@@H]1[C@@H](n2cc(-c3ccc(Cl)c(Cl)c3)nn2)[C@@H](O)[C@@H](CO)O[C@H]1C(=O)N(c1cc(Cl)cc(C#N)c1)[C@@H]1CC[C@H]1O [Example 2.8.4R, (2R,3R,4S,5R,6R)-N-(3-chloro-5-cyanophenyl)-4-(4-(3,4-dichlorophenyl)-1H-1,2,3-triazol-1-yl)-5-hydroxy-N-((1R,2R)-2-hydroxycyclobutyl)-6-(hydroxymethyl)-3-methoxytetrahydro-2H-pyran-2-carboxamide]"
4,155,"CO[C@@H]1[C@@H](n2cc(-c3ccc(Cl)c(Cl)c3)nn2)[C@@H](O)[C@@H](CO)O[C@H]1C(=O)N(c1cc(Br)cc(C#N)c1)[C@H]1CC[C@@H]1O [Example 2.8.5, (2R,3R,4S,5R,6R)-N-(3-bromo-5-cyanophenyl)-4-(4-(3,4-dichlorophenyl)-1H-1,2,3-triazol-1-yl)-5-hydroxy-N-((1S,2S)-2-hydroxycyclobutyl)-6-(hydroxymethyl)-3-methoxytetrahydro-2H-pyran-2-carboxamide]"
5,446,"CO[C@@H]1[C@@H](n2cc(-c3ccc(Cl)c(Cl)c3)nn2)[C@@H](O)[C@@H](CO)O[C@H]1C(=O)N(c1cc(Br)cc(C#N)c1)[C@@H]1CC[C@H]1O [Example 2.8.5R, (2R,3R,4S,5R,6R)-N-(3-bromo-5-cyanophenyl)-4-(4-(3,4-dichlorophenyl)-1H-1,2,3-triazol-1-yl)-5-hydroxy-N-((1R,2R)-2-hydroxycyclobutyl)-6-(hydroxymethyl)-3-methoxytetrahydro-2H-pyran-2-carboxamide]"
6,123,"CO[C@@H]1[C@@H](n2cc(-c3cc(F)cc(Cl)c3)nn2)[C@@H](O)[C@@H](CO)O[C@H]1C(=O)N(c1cc(Br)cc(C#N)c1)[C@H]1CC[C@@H]1O [Example 2.9.5, (2R,3R,4S,5R,6R)-N-(3-bromo-5-cyanophenyl)-4-(4-(3-chloro-5-fluorophenyl)-1H-1,2,3-triazol-1-yl)-5-hydroxy-N-((1S,2S)-2-hydroxycyclobutyl)-6-(hydroxymethyl)-3-methoxytetrahydro-2H-pyran-2-carboxamide]"
7,473,"CO[C@@H]1[C@@H](n2cc(-c3cc(F)cc(Cl)c3)nn2)[C@@H](O)[C@@H](CO)O[C@H]1C(=O)N(c1cc(Br)cc(C#N)c1)[C@@H]1CC[C@H]1O [Example 2.9.5R, (2R,3R,4S,5R,6R)-N-(3-bromo-5-cyanophenyl)-4-(4-(3-chloro-5-fluorophenyl)-1H-1,2,3-triazol-1-yl)-5-hydroxy-N-((1R,2R)-2-hydroxycyclobutyl)-6-(hydroxymethyl)-3-methoxytetrahydro-2H-pyran-2-carboxamide]"
8,232,"CO[C@@H]1[C@@H](n2cc(-c3cc(F)cc(Br)c3)nn2)[C@@H](O)[C@@H](CO)O[C@H]1C(=O)N(c1cc(C)cc(C#N)c1)[C@H]1CC[C@@H]1O [Example 2.10.8, (2R,3R,4S,5R,6R)-4-(4-(3-bromo-5-fluorophenyl)-1H-1,2,3-triazol-1-yl)-N-(3-cyano-5-methylphenyl)-5-hydroxy-N-((1S,2S)-2-hydroxycyclobutyl)-6-(hydroxymethyl)-3-methoxytetrahydro-2H-pyran-2-carboxamide]"
